Read-outs that look alike come from different tables or passages of the source. No end group written: not given here. *: point of attachment. Biotin = O=C1N[C@H]2[C@H](CS[C@H]2CCCCC(=O)*)N1
How the values were obtained:
[1] = tested on: NOD/SCID mice transplanted with HL-60 cells; details: 30 mg/kg subcutaneous, twice a week from day 20 after transplantation
Protocol: The 5-week-old female NOD/SCID mice (purchased from the Animal Experimental Center of the Institute of Basic Medical Science, Chinese Academy of Medical Sciences) cultured in a special sterile environment were used. Prior to the experiment, animals should be acclimated to the laboratory environment for 1 week. 1×10^6 HL-60 cells were suspended in 100 μL ethylene diamine tetracetic acid sodium (EDTA)/PBS and injected intravenously into NOD/SCID mice subjected to sub-lethal irradiation (250 cGy). […] From day 20 after transplantation, the mice were injected with E5 (30 mg/kg, n=9), cyclophosphamide (CTX, 36 mg/kg, n=9), or sterile water (n=8) respectively twice a week to observe the state and weight changes of the mice, wherein E5 and sterile water were injected into mice by subcutaneous injection and cyclophosphamide was injected into mice by intraperitoneal injection.

[2] = tested on: leukemia cells HL-60 and U937 cells; details: 24 h
Protocol: The effect of E5 polypeptide on the apoptosis of leukemia cells HL-60 and U937 cells was examined by FITC-Annexin V/PI (eBioscience, Australia) double-staining assay. HL-60 and U937 cells were harvested in logarithmic growth phase. The cell suspensions and E5 aqueous solutions at different concentrations were added to 24-well plates. After incubation for 24 h, the cells were collected and washed with PBS. FITC-Annexin V and PI were added after the cells were resuspended in a binding buffer (10 mM Hepes/NaOH, pH 7.4, 140 mM NaCl, 2.5 mM CaCl2). After incubating for 10 min at room temperature, 1.5×10^4 cells were analyzed by flow cytometer (Accuri C6, BD, USA).

U937 cells = details: CXCL12 50 ng/mL, 24 h
Protocol: (§1) HL-60 and U937 cells were harvested in logarithmic growth phase and suspended in RPMI-1640 medium without FBS. 200 μL of the suspension containing 20×10^4 cells and aqueous solutions of E5 at different concentrations were added to the upper chamber of a trans well chamber (PET microporous filter membrane with a diameter of […] was used for HL-60, and PET microporous filter membrane with a diameter of 5 μm was used for U937) so that the final concentration of the polypeptide molecule was 0.1 μM, 1.0 μM, and 10 μM respectively, and an aqueous solution was added for use as a blank control. 800 μL of the RPMI-1640 medium without FBS was added to the lower chamber, along with adding aqueous solutions of CXCL12 at concentrations of 200 ng/mL and 50 ng/mL respectively to induce HL-60 and U937 cells. The culture plates were incubated in an incubator under 37° C., 5% CO2 for 24 h. The trans well chambers were removed and the number of the migrated cells in the lower chamber was calculated.

HL-60 cells = details: CXCL12 200 ng/mL, 24 h
Protocol: as §1

Biotin-GGRSFFLLRRIQGCRFRNTVDD [E5]
survival time of mice versus cyclophosphamide group and control group [1]: longer survival time | weight of mice versus cyclophosphamide group and control group [1]: much higher | apoptosis rate of leukemia cells ([2]; 50 μM): 10% | apoptosis rate of leukemia cells ([2]; 80 μM): 22% | effect on apoptosis of leukemia cells HL-60 and U937 cells ([2]; concentration below 20 μM): negligible | apoptosis rate of leukemia cells ([2]; concentration higher than 20 μM): increased rapidly | decrease of migration ability of U937 cells (longitudinal) (U937 cells; 0.1 μM): 17.00% | decrease of migration ability of U937 cells (longitudinal) (U937 cells; 1.0 μM): 23.00% | decrease of migration ability of U937 cells (longitudinal) (U937 cells; 10 μM): 20.00% | decrease of migration ability of HL-60 cells (longitudinal) (HL-60 cells; 0.1 μM): 35.00% | decrease of migration ability of HL-60 cells (longitudinal) (HL-60 cells; 1.0 μM): 39.00% | decrease of migration ability of HL-60 cells (longitudinal) (HL-60 cells; 10 μM): 64.00%
